Results reported in the NIST ThermoML archive (doi:10.1021/acs.jced.9b00112).
± gives the expanded uncertainty stated by the source.

Experiment: osmotic coefficient (dimensionless); mn = molality of the nth substance listed, in mol/kg
Conditions: 101 kPa, Liquid

O=S(=O)([O-])[O-].[Ca+2] [calcium sulfate] + O
Conditions	osmotic coefficient
273.12 K, m1 = 0.00937	0.732 ± 0.013
273.12 K, m1 = 0.00952	0.731 ± 0.013
273.12 K, m1 = 0.01046	0.723 ± 0.014
273.12 K, m1 = 0.01092	0.719 ± 0.014
273.12 K, m1 = 0.011	0.719 ± 0.014
273.13 K, m1 = 0.00526	0.78 ± 0.011
273.13 K, m1 = 0.0056	0.774 ± 0.011
273.13 K, m1 = 0.00625	0.766 ± 0.012
273.13 K, m1 = 0.0067	0.76 ± 0.012
273.13 K, m1 = 0.00714	0.755 ± 0.012
273.13 K, m1 = 0.00742	0.751 ± 0.012
273.13 K, m1 = 0.00782	0.747 ± 0.013
273.13 K, m1 = 0.00915	0.734 ± 0.013
273.14 K, m1 = 0.00418	0.798 ± 0.01
273.14 K, m1 = 0.00487	0.786 ± 0.011
